Measurements reported in US20220193025A1, “USE OF DIANHYDROHEXITOL TO ELIMINATE THE COSMETIC EFFECTS OF ACNE, DANDRUFF AND BAD ODORS” (ROQUETTE FRERES, priority 2019, published 2022).

Assays:
[1] = test system: Corynobacterium xerosis strain; assay: Example 3: microbial population count over 28 days after contamination (microtiter method, TTC); assay type: cell-based, Corynebacterium xerosis; settings: for Number of colony forming strains after: 24 h / Number of colony forming strains after: 7 days / Number of colony forming strains after: 14 days / Number of colony forming strains after: 21 days / Number of colony forming strains after: 28 days: 22° C.
Procedure: (§1) The samples are prepared under sterile conditions and deposited in microplates (2-ml wells) with the concentrations hereunder. Two analysis controls were produced: a positive control corresponding to 0.5% Phenonip®; a negative control consisting of 0.85% physiological saline solution. Samples and controls are contaminated by three bacterial strains, Staphylococcus epidermidis, Corynebacterium xerosis and Propionobacterium acnes, with around 1.43×10^5 to 4.15×10^5 colony forming units per milliliter, denoted cfu/ml. After contamination, the samples are carefully mixed by suction-discharge cycles in order to ensure a uniform distribution of the microorganism. The whole is incubated at 22° C. during 28 days. The microbial population is sampled and counted at 24 hours, 7, 14, 21 and 28 days for each bacterial strain. The contaminated samples are collected and then deposited in serial dilutions in microtiter plates, in the presence of culture medium, which is a saline solution with 0.85% sodium chloride, and a dehydrogenase activity indicator reagent, which is 2,3,5-triphenyltetrazolium chloride (denoted TTC). The results are presented in the following pages with the variation of the microbial population over the 28 days of study, for the tested microbial strain. The measurements of microbial populations in the samples collected at each time, are carried out according to the following microtiter method, for one sample collection. In the 96 wells with a volume of 250 μL of a microtiter plate, 20 μL of the collected sample are diluted by a factor of 10 by dispersion in 180 μL of Letheen broth (Difco, ref. 268110) containing 1.5% of Tween 80 (Sigma, ref. […]) and TTC (Sigma, ref. […]). The microplate is incubated for 48 hours at 32.5° C., and the growth of the microorganisms is monitored by the color change, from colorless to red/pink. The highest reciprocal dilution indicating a growth makes it possible to determine the log number of each microorganism at each time. The measurements of microbial populations taken at each collection time are expressed as colony forming units/ml.

Malassezia furfur strain = assay: Example 2: microbial population count over 28 days after contamination (microtiter method, TTC); assay type: cell-based; settings: for Number of colony forming strains after: 24 h / Number of colony forming strains after: 7 days / Number of colony forming strains after: 14 days / Number of colony forming strains after: 21 days / Number of colony forming strains after: 28 days: 22° C.
Procedure: as §1, with “by a Malassezia furfur fungal strain” for “by three bacterial strains, Staphylococcus epidermidis, Corynebacterium xerosis and Propionobacterium acnes,”, “around 1.50×10^4” for “around 1.43×10^5”, “to 3.80×10^4” for “to 4.15×10^5”, “for the” for “for each”

Candida albicans = settings: U.S. Pat. No. 9,295,626, table 2; cited from earlier work

## O[C@@H]1CO[C@H]2[C@@H]1OC[C@@H]2O [isosorbide, 1,4-3,6-dianhydrosorbitol]
[1]
  bactericidal effect (conclusion in words): moderate bactericide
[1]; after 24 hours, for the three doses tested
  reduction of the number of colony forming strains: at least 3 log 10
[1]; after 7 days
  colony forming strain observed: not any more colony forming strain
[1]; dose 1%
  Number of colony forming strains after: 24 h: 4 × 10^2 colony forming units/ml
  Number of colony forming strains after: 7 days: 0 colony forming units/ml
  Number of colony forming strains after: 14 days: 0 colony forming units/ml
  Number of colony forming strains after: 21 days: 0 colony forming units/ml
  Number of colony forming strains after: 28 days: 0 colony forming units/ml
[1]; dose 5%
  Number of colony forming strains after: 24 h: 1 × 10^2 colony forming units/ml
  Number of colony forming strains after: 7 days: 0 colony forming units/ml
  Number of colony forming strains after: 14 days: 0 colony forming units/ml
  Number of colony forming strains after: 21 days: 0 colony forming units/ml
  Number of colony forming strains after: 28 days: 0 colony forming units/ml
[1]; dose 9%
  Number of colony forming strains after: 24 h: 3.7 × 10^2 colony forming units/ml
  Number of colony forming strains after: 7 days: 0 colony forming units/ml
  Number of colony forming strains after: 14 days: 0 colony forming units/ml
  Number of colony forming strains after: 21 days: 0 colony forming units/ml
  Number of colony forming strains after: 28 days: 0 colony forming units/ml
Malassezia furfur strain
  effect on the strain (conclusion in words): bactericide
Malassezia furfur strain; after 24 hours
  colony forming strain observed: no colony forming strain is observed
Malassezia furfur strain; dose of isosorbide 1%
  Number of colony forming strains after: 24 h: 0 colony forming units/ml
  Number of colony forming strains after: 7 days: 0 colony forming units/ml
  Number of colony forming strains after: 14 days: 0 colony forming units/ml
  Number of colony forming strains after: 21 days: 0 colony forming units/ml
  Number of colony forming strains after: 28 days: 0 colony forming units/ml
Malassezia furfur strain; dose of isosorbide 5%
  Number of colony forming strains after: 24 h: 0 colony forming units/ml
  Number of colony forming strains after: 7 days: 0 colony forming units/ml
  Number of colony forming strains after: 14 days: 0 colony forming units/ml
  Number of colony forming strains after: 21 days: 0 colony forming units/ml
  Number of colony forming strains after: 28 days: 0 colony forming units/ml
Malassezia furfur strain; dose of isosorbide 9%
  Number of colony forming strains after: 24 h: 0 colony forming units/ml
  Number of colony forming strains after: 7 days: 0 colony forming units/ml
  Number of colony forming strains after: 14 days: 0 colony forming units/ml
  Number of colony forming strains after: 21 days: 0 colony forming units/ml
  Number of colony forming strains after: 28 days: 0 colony forming units/ml
Candida albicans
  minimum inhibitory concentration: 10%
